Series [1] has as its system PC12 cells. The series can be described thus: SOD activity after H2O2 in vitro (colorimetry kit). It is filed as cell-based. Particulars: 10 μM pretreatment 4 h, then H2O2 (1 μM) 2 h. Here is the method: (§1) The in vitro neurotoxicity model was established using H2O2 to induce oxidative stress and injury in PC12 cells.
The ROS assay kit (S0033; Beyotime Institute of Biotechnology, Jiangsu, China) in DCFH-DA method was used to determine the intracellular ROS generation. PC12 cells were seeded in six-well plates at a density of 5 × 10^5 cells/well and incubated at 37 °C for 24 h. […] Then trypsin–EDTA was used to harvest the cells, which were washed three times with PBS afterward, and finally stained with 2′,7′-dichlorofluorescein diacetate (DCFH-DA, 10 μM) and incubated for 20 min at 37 °C in the dark. After centrifugation (2000 rpm, 3 min), the cell pellet was washed three times with PBS, resuspended in PBS before flow cytometer analysis (Ex 488 nm and Em 525 nm). SOD is an index of superoxide level which neutralizes free oxygen radicals, usually being tested along with ROS level showing oxidative stress. In brief, after harvesting, the cells were resuspended in PBS and lysed by Ultrasonic cell grinder (SCIENTZ-II D, Zhejiang, China) to obtain the cell lysis solution. Then, the SOD activity was evaluated using colorimetry kits (A001; Nanjing Jiancheng Bioengineering Institute, Nanjing, China). Untreated cells were used as the control.

The nature of series [2]: Distribution in brain in mice, brain homogenate. The format is in vivo, Kunming mice. Particulars: for AUC(0–t): brain homogenate, ibuprofen after hydrolysis of sample, 10 mg/kg (calculated as ibuprofen) tail vein.
Procedure: Kunming mice weighing 20–22 g were purchased from DOSSY Experimental Animal Center of Chengdu (Sichuan, China). All animal procedures for this study were approved by the Experiment Animal Administrative Committee of Sichuan University (P.R. China).
At appropriate time interval (5, 10, 15, 30, 45, 60, 90, 120, 240 and 480 min), blood was collected from the eye socket of mouse into a tube containing heparin, and centrifuged at 5000 rpm for 5 min. The supernatant was collected as plasma sample. The animals were killed by cervical dislocation, and the brain tissue was removed, and then washed with saline for three times to remove the remained blood and rolled over on the filter paper to remove the main vessel. All the brain tissues were homogenized with twice amount of saline. An aliquot of 10 μl of internal standard (naproxen, 30 μg/ml) was added into 200 μl plasma or 200 μl brain homogenate, the mixture was vortexed with 200 μl methanol for 5 min. Then, an aliquot of 50 μl of 6 M NaOH aqueous solution was added to the spiking mixture. […] Followed by vortexing for 5 min, 0.6 ml acetonitrile was added and the mixture was centrifuged at 15,000 rpm for 10 min. The separated supernatant was evaporated to dryness at 40 °C under air flow. The residues were redissolved in 50 μl methanol and centrifuged at 15,000 rpm for 10 min, and then 20 μl of the supernatant was injected into the HPLC system for analysis.
The area under the curve (AUC0–t) and the maximal concentration (Cmax) were calculated by Data and Statistics (DAS, Shanghai, China). The statistical analysis of the samples was performed by using a Student’s t-test with p values < .05 as the minimal level of significance. The relative uptake efficiency (RE) and concentration efficiency (CE) were calculated to evaluate the brain-targeting property of prodrugs. The values of REbrain and CEbrain are defined as follows: RE = (AUC 0) Pro/(AUC 0) Ibu, CE=(Cmax)Pro/(Cmax)Ibu.
The test system of series [3] is cerebral ischemia model induced by bilateral common carotid artery occlusion. Description: Brain ischemia model, SOD, MDA and GSH in brain homogenate. The format is in vivo, Wistar rats. Conditions: rat brain homogenate, 1 mg/kg (calculated as ibuprofen) tail vein; for MDA level: relative to sham group.
Series [4] shares this test system. Description: Brain ischemia model, TTC staining of brain sections. The format is in vivo, Wistar rats. Conditions: rats, 1 mg/kg (calculated as ibuprofen) tail vein, 30 min before 1.5 h ligation.
For series [5], the system named is PC12 cells. Description: Neuroprotective effect against H2O2-induced cytotoxicity, MTT cell viability. The format is cell-based. Conditions: Rattus norvegicus, PC-12, 10 μM pretreatment 4 h, then H2O2 (1 μM) 2 h, read-out: Cell viability (survival rate compared to control). Here is the method: as §1
Briefly, PC12 cells were seeded in 96-well plates at the density of 6 × 10^4 cell/well and incubated at 37 °C for 24 h. […] After the treatment, the cells were observed under inverted phase contrast microscopy and cell images were recorded. Subsequently, the cells viability was assessed by MTT assay using a microplate reader.

Series [6] can be described thus: Metabolic stability in mice brain homogenate. Conditions: 37 °C. The format is in vitro ADME. Here is the method:
(§2) The preliminary metabolic stability of prodrugs was studied by incubating in plasma and brain homogenate, respectively. 1 ml of the prodrugs methanol solution (250 μM) was added into 4 ml plasma or brain homogenate. Then, the entire system was kept at 37 ± 0.5 °C with continuous shaking at 100 rpm/min. 200 μl samples were taken at the following time points: 0, 0.5, 1, 2, 3, 6, 12, and 24 h, and then replaced by plasma or brain homogenate. The internal standard (naproxen, 10 μl, 30 μg/ml) was added to each sample followed by 200 μl acetonitrile.
(§3) The metabolic stability of the prodrugs was studied in the mice plasma and brain homogenate at 37 °C. The Kdisapp and t1/2 of the prodrugs in plasma and brain homogenate were calculated by linear regression of the peak area against time (Table 2).

Series [7] can be described thus: Metabolic stability in mice plasma. Particulars: 37 °C. It is filed as in vitro ADME. As for the experimental part: as §2, §3
Series [8] is described as follows: In vitro chemical stability in phosphate buffers. Particulars: 37 °C. The format is physicochemical. As for the experimental part:
The in vitro chemical stability of prodrugs was investigated by incubating the prodrugs in pH 2.5, 5.0, 7.4 and 8.0 phosphate buffers, respectively. Briefly, 1 ml of the prodrugs methanol solution (250 μg/ml) was added into 4 ml different buffer separately. The entire system was kept at 37 ± 0.5 °C with continuous shaking at 100 rpm/min. 200 μl medium samples were taken at the following time points: 0, 0.5, 1, 2, 3, 6, 12, and 24 h, and then replaced by fresh medium. The samples were analyzed by HPLC (Shimadzu). The analysis was accomplished on a SinoChrom ODS-C18 column (Dalian, China) (200 × 4.6 mm, […]), thermostated at 35 °C. The mobile phase was composed of methanol/water (73:27), and the pH was adjusted to 2.86 with 10% phosphoric acid. The UV […] was 225 nm and the flow rate was set at 1.0 ml/min with a 20 μl injection volume.
These solutions were maintained at 37 °C, and the aliquots were withdrawn in predetermined time intervals, then the concentrations of the prodrugs were determined by HPLC method.

The mark [9] stands for this setting: Kunming, mouse, iv, brain, analyte intact prodrug, before hydrolysis, 10 mg/kg tail vein.
The mark [10] stands for this setting: brain, analyte ibuprofen (dosed or released), before hydrolysis, 10 mg/kg tail vein.

The text below walks through data of paper PMC6058731, “Dual-targeting for brain-specific drug delivery: synthesis and biological evaluation” (Drug Delivery, 2018).

Broadly, the Cmax is the maximum level reached in the sampled fluid or tissue. Broadly, the MRT is a mean duration of stay, worked out from the concentration-time curve. By Tmax is commonly meant the time at which the peak concentration occurs. As a reminder, the viability is a read-out of living cells in per cent, often relative to untreated cells. As usually defined, the half-life is how long it takes for the measured level to halve.

For the molecule `CC(C)Cc1ccc(C(C)C(=O)OC(COC(=O)CCC(=O)OCC2OC(O)C(O)C(O)C2O)C2OC(=O)C(O)=C2O)cc1` (centres unmarked) [Glu-Vc-Ibu], the SOD activity entry in series [1] was “markedly relieved the damage compared with others”; in series [3], “significant raise compared with saline group or ibuprofen group”. Besides, the Cmax in series [2] (setting [9]) was determined as 26400 ± 1970 ng/g. The mean residence time MRT in series [2] (setting [9]) is 2.73 h. In series [2] (setting [9]), the Tmax is 0.25 h. The “AUC(0–t)” value in series [2] was 7308.11 ± 447.86 µg·min/g. The “AUC(0-t)” value came out at 3393.98 ± 257.39 µg·min/g in series [2] (setting [10]) and 3459.18 ± 223.76 µg·min/g in series [2] (brain, analyte intact prodrug, before hydrolysis, 10 mg/kg tail vein). Also, the MDA level in series [3] was 110.96%. Further, the “TTC red-staining rate compared with the sham group” value in series [4] is recorded as 87.95%. Moreover, the viability at 10 µM in series [5] is 89.9%. The Kdisapp came to 0.000542 s⁻¹ in series [6]; 0.000187 s⁻¹ in series [7]; 1.07e-05 s⁻¹ in series [8] (pH 2.5 phosphate buffer); 3.86e-06 s⁻¹ in series [8] (pH 5.0 phosphate buffer); 1.5e-05 s⁻¹ in series [8] (pH 7.4 phosphate buffer); 1.74e-05 s⁻¹ in series [8] (pH 8.0 phosphate buffer). In addition, the half-life at 50 μM in series [6] (mouse) worked out at 0.355 h; in series [7] (mouse), 1.03 h. Besides, the half-life at 50 μg/ml in series [8] (pH 2.5 phosphate buffer) was 18.1 h; in series [8] (pH 5.0 phosphate buffer), 49.9 h; in series [8] (pH 7.4 phosphate buffer) it was 12.8 h; in series [8] (pH 8.0 phosphate buffer) it was 11.1 h.
In the case of `CC(C)Cc1ccc(C(C)C(=O)O)cc1` (centres unmarked) [Ibuprofen, reference compound], the “AUC(0–t)” value in series [2] is 2782.42 ± 176.55 µg·min/g. Besides, the “AUC(0-t)” value in series [2] (setting [10]) was found to be 2782.42 ± 176.55 µg·min/g. Also, in series [3], the SOD activity entry is “did not obviously reverse the decrease of SOD activity” and the MDA level is 192.42%. Further, the “TTC red-staining rate compared with the sham group” value in series [4] is on record as 48.09%. Moreover, in series [5], the viability at 10 µM was determined as 74.1%.
